Several values for one entry are separate records, joined by “and”; a condition that tells them apart may be missing. Identical values can stand only once. Like-named read-outs stand apart in the source and are kept apart here.
Assays:
[1] = system: kaolin-induced edema of the rat's hind paw; assay: Test for antiphlogistic effect against the kaolin-induced edema of the rat's hind paw; type: in vivo, rat (Chbb:THOM); conditions: for Thickness of the paw (mean): 5 h after kaolin; for Thickness of the paw (mean) / ED35: rat; for influence on acute anti-exudative (antiphlogistic) effect of non-steroidal antiphlogistics: kaolin-induced edema, simultaneous oral administration; for ED35: Rattus norvegicus, po, 5 h, kaolin edema
Experimental: (2) Test for antiphlogistic effect against the kaolin-induced edema of the rat's hind paw (tested substances: A, B, C and D)
The test was carried out on male Chbb:THOM-rats with a body weight between 125 and 150 gm. According to HILLEBRECHT [Arzneimittel-Forsch. 4, 607 (1954)], a subplantary injection of 0.05 ml of a 10% suspension of kaolin in an aqueous 0.85% sodium chloride solution in the hind paw was used for the provocation of the kaolin edema. The other hind paw was subplantarily injected with the same volume of an aqueous 0.85% sodium chloride solution.
The measurement of the thickness of the paws was carried out using the technique of DOEPFNER and […] [Int. Arch. Allergy appl. Immunol. 12, 89 (1958)] by way of the determination of the maximum sagittal diameter, using a measuring device with constant pressure, before and 5 hours after the provocation of the edema.
The test substances (the non-steroidal antiphlogistics or the mixture of non-steroidal antiphlogistics with pirenzepine dihydrochloride) were administered 30 minutes before provocation of the edema as a trituration in 1% tylose (1 ml/[…]) by way of an esophageal tube.
The diameter of the paw measured before the beginning of the test as well as the increase in diameter of the other paw caused by injection were subtracted from the diameter of the kaolin-treated paw, and this difference, being the real swelling value, was used for the further calculations.
(§1) From the swelling values obtained by administration of different dosages of non-steroidal antiphlogistics with or without the addition of pirenzepine dihydrochloride, using a linear regression analysis according to LINDNER [Statistische Methoden, 4th Ed., pages 148-162, Birkhauser, Basel, Switzerland (1964)], the ED35 values of the antiphlogistics were calculated with the confidence limits according to FIELLER [Quart. J. Pharm. Pharmacol. 17, 117 (1944)], the ED35 being the dosage which reduces the swelling of the paws by 35% in comparison to the control animals.

[2] = system: carrageenin-induced edema of the hind paw of the rat; assay: Test for antiphlogistic effect against the carrageenin-induced edema of the hind paw of the rat; type: in vivo; conditions: for Thickness of the paw (mean): oral, 3 h after carrageenin; for Thickness of the paw (mean) / ED35: rat; for influence on acute anti-exudative (antiphlogistic) effect of non-steroidal antiphlogistics: carrageenin-induced edema, simultaneous oral administration; for ED35: Rattus norvegicus, po, 3 h, carrageenin edema
Experimental: The test was carried out in analogy to the above test for the kaolin-induced edema. However, the edema was induced according to the method of WINTER et al. [J. Pharmacol. 141, 369 (1963)] by subplantary injection of 0.05 ml of a 1% solution of carrageenin in an aqueous 0.85% solution of sodium chloride. […] Three hours after the provocation of the edema the measurement which provided the basis for the evaluation of an anti-exudative effect was carried out.
as §1

[3] = system: ulcer; type: in vivo; conditions: several hundred cases, two years
[4] = Test for ulcerogenic effect on the stomach of the rat; type: in vivo, rat (Chbb:THOM); conditions: in vivo, po
Experimental: (§2) (1) Test for ulcerogenic effect on the stomach of the rat
(§3) The test was carried out on male and female (1:1) Chbb:THOM-rats with a body weight between 130 to 150 gm at the beginning of the study.
(§4) The test substances (non-steroidal anti-phlogistics or mixtures of these antiphlogistics with pirenzepine dihydrochloride) were administered as triturations in 1% tylose (1 ml/100 gm animal) by way of an esophageal tube once a day on three successive days.
(§5) Four hours after the last administration (i.e. on the 3rd day) the animals were killed by an over-dose of ether. The stomachs wer dissected, cut along the great curvature and washed under flowing water for subsequent macroscopic evaluation.

[5] = system: stomach of the rat; assay: as above; type: in vivo, rat (Chbb:THOM); conditions: oral, 3 subsequent days
Experimental: as §2, §3, §4, §5

[6] = system: gastro-intestinal tract; conditions: cited from earlier work
[7] = listed as pirenzepine dihydrochloride, dihydrochloride
[8] = clinical, depending upon experience, patients and compound primarily used
[9] = antiphlogistic 50 mgm/kg, without A
[10] = antiphlogistic 50 mgm/kg + A 400 mgm/kg
[11] = antiphlogistic 100 mgm/kg + A 400 mgm/kg
[12] = antiphlogistic 100 mgm/kg, without A
[13] = antiphlogistic 200 mgm/kg, without A

## CN1CCN(CC(=O)N2c3ccccc3C(=O)Nc3cccnc32)CC1.Cl.Cl [A, 5,11-dihydro-11-[(4-methyl-1-piperazinyl)-acetyl]-6H-pyrido[2,3-b] [1,4] benzodiazepin-6-one dihydrochloride]
[1]; Controls with A 100 mgm/kg, no antiphlogistic, oral, dihydrochloride
  Thickness of the paw (mean): 277.5 10^-2 mm and 276.3 10^-2 mm and 278.0 10^-2 mm
[1]; dihydrochloride
  influence on acute anti-exudative (antiphlogistic) effect of non-steroidal antiphlogistics: not reduced
[1]; [7]
  influence on acute anti-exudative (antiphlogistic) effect of non-steroidal antiphlogistics: does not lead to a reduction of the acute anti-exudative effect
[2]; Controls with A 400 mgm/kg, no antiphlogistic, dihydrochloride
  Thickness of the paw (mean): 272.0 10^-2 mm and 271.0 10^-2 mm
[2]; dihydrochloride
  influence on acute anti-exudative (antiphlogistic) effect of non-steroidal antiphlogistics: not reduced
[2]; [7]
  influence on acute anti-exudative (antiphlogistic) effect of non-steroidal antiphlogistics: does not lead to a reduction of the acute anti-exudative effect
[3]; pirenzepine dihydrochloride together with indomethacin
  ulcer rate: ~0%

## COc1ccc2c(c1)c(CC(=O)O)c(C)n2C(=O)c1ccc(Cl)cc1 [B, 1-(4-chloro-benzoyl)-5-methoxy-2-methyl-1H-indole-3-aceticacid]
[1]; with A 100 mgm/kg
  ED35: 3 mg/kg
[1]; without A
  ED35: 4.3 mg/kg
[1]; antiphlogistic 1.5 mgm/kg + A 100 mgm/kg, oral
  Thickness of the paw (mean): 200.3 10^-2 mm
[1]; antiphlogistic 1.5 mgm/kg, without A, oral
  Thickness of the paw (mean): 214.8 10^-2 mm
[1]; antiphlogistic 3.0 mgm/kg + A 100 mgm/kg, oral
  Thickness of the paw (mean): 178.3 10^-2 mm
[1]; antiphlogistic 3.0 mgm/kg, without A, oral
  Thickness of the paw (mean): 189.0 10^-2 mm
[1]; antiphlogistic 6.0 mgm/kg + A 100 mgm/kg, oral
  Thickness of the paw (mean): 162.9 10^-2 mm
[1]; antiphlogistic 6.0 mgm/kg, without A, oral
  Thickness of the paw (mean): 164.5 10^-2 mm
[4]; with A 50 mgm/kg, oral, 3 subsequent days, read-out: ED50-ulcer
  TD50: 3.3 mg/kg
[4]; with A 100 mgm/kg, oral, 3 subsequent days, read-out: ED50-ulcer
  TD50: 4.9 mg/kg
[4]; without A, oral, 3 subsequent days, read-out: ED50-ulcer
  TD50: 2.55 mg/kg
[5]; antiphlogistic 2 mgm/kg, without A
  Ratio of animals with ulcers: 4/18
[5]; antiphlogistic 2.8 mgm/kg + A 50 mgm/kg
  Ratio of animals with ulcers: 4/16
[5]; antiphlogistic 2.8 mgm/kg + A 100 mgm/kg
  Ratio of animals with ulcers: 4/16
[5]; antiphlogistic 2.8 mgm/kg, without A
  Ratio of animals with ulcers: 11/18
[5]; antiphlogistic 4.0 mgm/kg + A 50 mgm/kg
  Ratio of animals with ulcers: 12/16
[5]; antiphlogistic 4.0 mgm/kg + A 100 mgm/kg
  Ratio of animals with ulcers: 5/15
[5]; antiphlogistic 4 mgm/kg, without A
  Ratio of animals with ulcers: 16/18
[5]; antiphlogistic 5.66 mgm/kg + A 50 mgm/kg
  Ratio of animals with ulcers: 13/15
[5]; antiphlogistic 5.66 mgm/kg + A 100 mgm/kg
  Ratio of animals with ulcers: 8/15
[5]; antiphlogistic 8.0 mgm/kg + A 100 mgm/kg
  Ratio of animals with ulcers: 15/15
[6]; [8]
  gastro-intestinal incompatabilities encountered, share of all cases: 25-37%
[3]; without pirenzepine dihydrochloride
  ulcer rate: 37%

## OCCCCc1ccc(-c2ccccc2)cc1 [D, 4-(4-biphenylyl)-butanol]
[1]; with A 100 mgm/kg, oral, read-out: ED35
  ED35: 12.1 mg/kg
[1]; without A, oral, read-out: ED35
  ED35: 11.2 mg/kg
[1]; antiphlogistic 6.25 mgm/kg + A 100 mgm/kg, oral
  Thickness of the paw (mean): 215.5 10^-2 mm
[1]; antiphlogistic 6.25 mgm/kg, without A, oral
  Thickness of the paw (mean): 214.3 10^-2 mm
[1]; antiphlogistic 12 mgm/kg + A 100 mgm/kg, oral
  Thickness of the paw (mean): 180.4 10^-2 mm
[1]; antiphlogistic 12 mgm/kg, without A, oral
  Thickness of the paw (mean): 165.0 10^-2 mm
[1]; antiphlogistic 25 mgm/kg + A 100 mgm/kg, oral
  Thickness of the paw (mean): 141.0 10^-2 mm
[1]; antiphlogistic 25 mgm/kg, without A, oral
  Thickness of the paw (mean): 124.0 10^-2 mm
[4]; ED50-ulcer
  TD50: 44.5 mg/kg
[5]; antiphlogistic 28.1 mgm/kg, without A
  Ratio of animals with ulcers: 4/17
[5]; antiphlogistic 37.5 mgm/kg, without A
  Ratio of animals with ulcers: 5/17
[5]; antiphlogistic 50.0 mgm/kg + A 50 mgm/kg
  Ratio of animals with ulcers: 1/16
[5]; antiphlogistic 50 mgm/kg + A 100 mgm/kg
  Ratio of animals with ulcers: 2/16
[5]; [9]
  Ratio of animals with ulcers: 9/17
[5]; antiphlogistic 67.5 mgm/kg + A 50 mgm/kg
  Ratio of animals with ulcers: 6/16
[5]; antiphlogistic 67.5 mgm/kg + A 100 mgm/kg
  Ratio of animals with ulcers: 5/15
[5]; antiphlogistic 67.5 mgm/kg, without A
  Ratio of animals with ulcers: 15/17
[5]; antiphlogistic 91.1 mgm/kg + A 50 mgm/kg
  Ratio of animals with ulcers: 11/14
[5]; antiphlogistic 91.1 mgm/kg + A 100 mgm/kg
  Ratio of animals with ulcers: 7/15
[5]; antiphlogistic 123.0 mgm/kg + A 50 mgm/kg
  Ratio of animals with ulcers: 13/14
[5]; antiphlogistic 123.0 mgm/kg + A 100 mgm/kg
  Ratio of animals with ulcers: 10/13

## CCCCC1C(=O)N(c2ccccc2)N(c2ccccc2)C1=O [G, 4-butyl-1,2-diphenyl-3,5-pyrazolidinedione]
[4]; ED50-ulcer
  TD50: 69 mg/kg
[5]; antiphlogistic 50 mgm/kg + A 200 mgm/kg
  Ratio of animals with ulcers: 2/20
[5]; [10]
  Ratio of animals with ulcers: 0/20
[5]; [9]
  Ratio of animals with ulcers: 4/20
[5]; antiphlogistic 71 mgm/kg + A 200 mgm/kg
  Ratio of animals with ulcers: 8/20
[5]; antiphlogistic 71 mgm/kg + A 400 mgm/kg
  Ratio of animals with ulcers: 0/20
[5]; antiphlogistic 100 mgm/kg + A 200 mgm/kg
  Ratio of animals with ulcers: 15/20
[5]; [11]
  Ratio of animals with ulcers: 6/20
[5]; [12]
  Ratio of animals with ulcers: 14/20
[5]; antiphlogistic 200 mgm/kg + A 200 mgm/kg
  Ratio of animals with ulcers: 20/20
[5]; antiphlogistic 200 mgm/kg + A 400 mgm/kg
  Ratio of animals with ulcers: 14/20
[5]; [13]
  Ratio of animals with ulcers: 20/20
[5]; antiphlogistic 400 mgm/kg + A 400 mgm/kg
  Ratio of animals with ulcers: 18/19
[6]; human, in vivo
  gastro-intestinal incompatabilities encountered, share of all cases: 25-37%
[2]; with A 400 mgm/kg
  ED35: 45.7 mg/kg
[2]; without A
  ED35: 51.7 mg/kg
[2]; antiphlogistic 25 mgm/kg + A 400 mgm/kg
  Thickness of the paw (mean): 205.0 10^-2 mm
[2]; antiphlogistic 25 mgm/kg, without A
  Thickness of the paw (mean): 216.8 10^-2 mm
[2]; [10]
  Thickness of the paw (mean): 173.5 10^-2 mm
[2]; [9]
  Thickness of the paw (mean): 175.8 10^-2 mm
[2]; [11]
  Thickness of the paw (mean): 138.9 10^-2 mm
[2]; [12]
  Thickness of the paw (mean): 153.8 10^-2 mm
[2]; [13]
  Thickness of the paw (mean): 125.0 10^-2 mm

## CCCC1C(=O)N2C(N(C)C)=Nc3ccc(C)cc3N2C1=O (stereo not drawn) [azapropazone, 5-dimethylamino-9-methyl-2-propyl-1H-pyrazolo[1,2-a][1,2,4]benzotriazine-1,3(2H)-dione]
[6]; [8]
  gastro-intestinal incompatabilities encountered, share of all cases: 25-37%
